Where two headings read alike, the source gives them in different places.
How the values were obtained:
EBV = conditions: normalized mean of EBV replication readout
HIV1 strain NL4-3 = format: cell-based; conditions: normalized mean of HIV1 replication readout
influenza A H1N1 virus = conditions: 48 hr post-treatment, A549
[1] = system: F. novicida (strain U112); format: cell-based
HCV replicon = format: cell-based; conditions: normalized mean of HCV replicon readout

LTMVI [CPEP12]
EBV Norm MEAN (EBV): 1.608 | HIV1 Norm MEAN (HIV1 strain NL4-3): 1.936 | Neuraminidase activity normalized to vehicle (influenza A H1N1 virus; 200 µM peptide): 0,732 | Neuraminidase activity normalized to vehicle (influenza A H1N1 virus; 0,823 µM peptide): 0,7557 | Neuraminidase activity normalized to vehicle (influenza A H1N1 virus; 22,2 µM peptide): 0,8312 | Neuraminidase activity normalized to vehicle (influenza A H1N1 virus; 2,4691 µM peptide): 0,7112 | Neuraminidase activity normalized to vehicle (influenza A H1N1 virus; 7,4074 µM peptide): 0,7657 | Neuraminidase activity normalized to vehicle (influenza A H1N1 virus; 66,6667 µM peptide): 0,8968 | Francisella novicida Norm AUC [1]: 1.651 | HCV Norm MEAN (HCV replicon): 0.1977

MAGRSGDSDEELIR [CPEP91]
EBV Norm MEAN (EBV; peptide screen): 0.5729 | HIV1 Norm MEAN (HIV1 strain NL4-3; peptide screen): 0.2767 | Neuraminidase activity normalized to vehicle (influenza A H1N1 virus; 200 µM peptide): 0,8049 | Neuraminidase activity normalized to vehicle (influenza A H1N1 virus; 0,823 µM peptide): 0,8065 | Neuraminidase activity normalized to vehicle (influenza A H1N1 virus; 22,2 µM peptide): 0,8658 | Neuraminidase activity normalized to vehicle (influenza A H1N1 virus; 2,4691 µM peptide): 0,8956 | Neuraminidase activity normalized to vehicle (influenza A H1N1 virus; 7,4074 µM peptide): 0,8592 | Neuraminidase activity normalized to vehicle (influenza A H1N1 virus; 66,6667 µM peptide): 0,8689 | Francisella novicida Norm AUC [1]: 1.031 | HCV Norm MEAN (HCV replicon; peptide screen): 0.7752

MNNQRKKAKNTPFNM [CPEP62]
EBV Norm MEAN (EBV; peptide screen): 1.218 | HIV1 Norm MEAN (HIV1 strain NL4-3; peptide screen): 0.3968 | Neuraminidase activity normalized to vehicle (influenza A H1N1 virus; 200 µM peptide): 1,2311 | Neuraminidase activity normalized to vehicle (influenza A H1N1 virus; 0,823 µM peptide): 1,1108 | Neuraminidase activity normalized to vehicle (influenza A H1N1 virus; 22,2 µM peptide): 0,891 | Neuraminidase activity normalized to vehicle (influenza A H1N1 virus; 2,4691 µM peptide): 1,0767 | Neuraminidase activity normalized to vehicle (influenza A H1N1 virus; 7,4074 µM peptide): 0,9136 | Neuraminidase activity normalized to vehicle (influenza A H1N1 virus; 66,6667 µM peptide): 1,1387 | Francisella novicida Norm AUC [1]: 0.8631 | HCV Norm MEAN (HCV replicon; peptide screen): 0.5393

MSKKPGGPGKNRAVN [CPEP42]
EBV Norm MEAN (EBV; peptide screen): 0.6277 | HIV1 Norm MEAN (HIV1 strain NL4-3; peptide screen): 0.4686 | Neuraminidase activity normalized to vehicle (influenza A H1N1 virus; 200 µM peptide): 0,9312 | Neuraminidase activity normalized to vehicle (influenza A H1N1 virus; 0,823 µM peptide): 0,9146 | Neuraminidase activity normalized to vehicle (influenza A H1N1 virus; 22,2 µM peptide): 1,055 | Neuraminidase activity normalized to vehicle (influenza A H1N1 virus; 2,4691 µM peptide): 0,9945 | Neuraminidase activity normalized to vehicle (influenza A H1N1 virus; 7,4074 µM peptide): 0,9864 | Neuraminidase activity normalized to vehicle (influenza A H1N1 virus; 66,6667 µM peptide): 1,0215 | Francisella novicida Norm AUC [1]: 1.093 | HCV Norm MEAN (HCV replicon; peptide screen): 0.9525

MSSDLRLTLLELVRRL [CPEP66]
EBV Norm MEAN (EBV; peptide screen): 1.239 | HIV1 Norm MEAN (HIV1 strain NL4-3; peptide screen): 8.878 | Neuraminidase activity normalized to vehicle (influenza A H1N1 virus; 200 µM peptide): 1,1231 | Neuraminidase activity normalized to vehicle (influenza A H1N1 virus; 0,823 µM peptide): 1,0081 | Neuraminidase activity normalized to vehicle (influenza A H1N1 virus; 22,2 µM peptide): 1,2015 | Neuraminidase activity normalized to vehicle (influenza A H1N1 virus; 2,4691 µM peptide): 1,0026 | Neuraminidase activity normalized to vehicle (influenza A H1N1 virus; 7,4074 µM peptide): 1,0851 | Neuraminidase activity normalized to vehicle (influenza A H1N1 virus; 66,6667 µM peptide): 1,0904 | Francisella novicida Norm AUC [1]: 1.55 | HCV Norm MEAN (HCV replicon; peptide screen): 1.3108

NKVGSLQYLALAALI [CPEP60]
EBV Norm MEAN (EBV; peptide screen): 0.706 | HIV1 Norm MEAN (HIV1 strain NL4-3; peptide screen): 4.7165 | Neuraminidase activity normalized to vehicle (influenza A H1N1 virus; 200 µM peptide): 0,117 | Neuraminidase activity normalized to vehicle (influenza A H1N1 virus; 0,823 µM peptide): 0,8991 | Neuraminidase activity normalized to vehicle (influenza A H1N1 virus; 22,2 µM peptide): 0,7636 | Neuraminidase activity normalized to vehicle (influenza A H1N1 virus; 2,4691 µM peptide): 1,0157 | Neuraminidase activity normalized to vehicle (influenza A H1N1 virus; 7,4074 µM peptide): 0,7801 | Neuraminidase activity normalized to vehicle (influenza A H1N1 virus; 66,6667 µM peptide): 0,247 | Francisella novicida Norm AUC [1]: 1.045 | HCV Norm MEAN (HCV replicon; peptide screen): 1.268

PDSDPQIPPPYVEPTA [CPEP138]
EBV Norm MEAN (EBV; peptide screen): 0.9708 | HIV1 Norm MEAN (HIV1 strain NL4-3; peptide screen): 0.606 | Neuraminidase activity normalized to vehicle (influenza A H1N1 virus; 200 µM peptide): 1,0087 | Neuraminidase activity normalized to vehicle (influenza A H1N1 virus; 0,823 µM peptide): 1,063 | Neuraminidase activity normalized to vehicle (influenza A H1N1 virus; 22,2 µM peptide): 1,1918 | Neuraminidase activity normalized to vehicle (influenza A H1N1 virus; 2,4691 µM peptide): 0,9934 | Neuraminidase activity normalized to vehicle (influenza A H1N1 virus; 7,4074 µM peptide): 1,0804 | Neuraminidase activity normalized to vehicle (influenza A H1N1 virus; 66,6667 µM peptide): 1,0379 | Francisella novicida Norm AUC [1]: 0.9657 | HCV Norm MEAN (HCV replicon; peptide screen): 1.015

PKKKRKV [CPEP56]
EBV Norm MEAN (EBV): 0.9787 | HIV1 Norm MEAN (HIV1 strain NL4-3): 0.9705 | Neuraminidase activity normalized to vehicle (influenza A H1N1 virus; 200 µM peptide): 0,9628 | Neuraminidase activity normalized to vehicle (influenza A H1N1 virus; 0,823 µM peptide): 1,0162 | Neuraminidase activity normalized to vehicle (influenza A H1N1 virus; 22,2 µM peptide): 0,9231 | Neuraminidase activity normalized to vehicle (influenza A H1N1 virus; 2,4691 µM peptide): 0,8416 | Neuraminidase activity normalized to vehicle (influenza A H1N1 virus; 7,4074 µM peptide): 0,8936 | Neuraminidase activity normalized to vehicle (influenza A H1N1 virus; 66,6667 µM peptide): 0,9527 | Francisella novicida Norm AUC [1]: 1.16 | HCV Norm MEAN (HCV replicon): 0.1426

PLDLS [CPEP54]
EBV Norm MEAN (EBV): 1.129 | HIV1 Norm MEAN (HIV1 strain NL4-3): 1.112 | Neuraminidase activity normalized to vehicle (influenza A H1N1 virus; 200 µM peptide): 1,1329 | Neuraminidase activity normalized to vehicle (influenza A H1N1 virus; 0,823 µM peptide): 1,0199 | Neuraminidase activity normalized to vehicle (influenza A H1N1 virus; 22,2 µM peptide): 0,844 | Neuraminidase activity normalized to vehicle (influenza A H1N1 virus; 2,4691 µM peptide): 1,1627 | Neuraminidase activity normalized to vehicle (influenza A H1N1 virus; 7,4074 µM peptide): 0,6425 | Neuraminidase activity normalized to vehicle (influenza A H1N1 virus; 66,6667 µM peptide): 1,0456 | Francisella novicida Norm AUC [1]: 0.4272 | HCV Norm MEAN (HCV replicon): 0.1712

PPIPPPR [CPEP151]
EBV Norm MEAN (EBV): 1.55 | HIV1 Norm MEAN (HIV1 strain NL4-3): 0.669 | Neuraminidase activity normalized to vehicle (influenza A H1N1 virus; 200 µM peptide): 1,016 | Neuraminidase activity normalized to vehicle (influenza A H1N1 virus; 0,823 µM peptide): 0,9906 | Neuraminidase activity normalized to vehicle (influenza A H1N1 virus; 22,2 µM peptide): 0,9273 | Neuraminidase activity normalized to vehicle (influenza A H1N1 virus; 2,4691 µM peptide): 0,9123 | Neuraminidase activity normalized to vehicle (influenza A H1N1 virus; 7,4074 µM peptide): 0,9111 | Neuraminidase activity normalized to vehicle (influenza A H1N1 virus; 66,6667 µM peptide): 0,9435 | Francisella novicida Norm AUC [1]: 1.288 | HCV Norm MEAN (HCV replicon): 0.3254

From paper PMC10835127, “Viruses traverse the human proteome through peptide interfaces that can be biomimetically leveraged for drug discovery” (Proceedings of the National Academy of Sciences of the …, 2024)
